The values below come from patent publication US20120165319A1, “INHIBITORS OF INTERLEUKIN-1 BETA CONVERTING ENZYME” (VERTEX PHARMACEUTICALS INCORPORATED, priority 1995, published 2012).

In general, clearance refers to the rate of elimination divided by the concentration. Read a low clearance as inefficient removal.

One data set deals with IL-1β, human whole blood. As to the kind of experiment: Whole blood assay for IL-1β production. It counts as cell-based. The method, boiled down:
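Human whole blood collected on Na2EDTA was treated with serially diluted compound in saline and then stimulated with LPS at 5.0 ng/ml final, for 16-18 h at 30 °C, in duplicate or triplicate. Plasma IL-1β was measured by ELISA at 1:200 dilution.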

Data set [1] in a line: In vivo rat clearance assay. The note with it: for clearance: plasma, iv. The method, boiled down: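 Rats cannulated a day beforehand received 10–20 mg/kg by intravenous jugular dosing in propylene glycol/saline with 100 mM sodium bicarbonate. Carotid blood was sampled from 0 to 90 min, and plasma was extracted with acetonitrile/0.1% TFA for HPLC quantification. Clearance from non-linear regression pharmacokinetic analysis.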

Setting [2] is: Homo sapiens, Table 17, read-out: Whole human blood IC50.
Setting [3] is: Homo sapiens, * = values obtained upon reassay, read-out: Whole human blood IC50.

Where two headings read alike, the source gives them in different places. A value given as a limit tells only on which side of the number the result lay.

As for `O=C[C@H](CC(=O)O)NC(=O)[C@@H]1CCCN2C(=O)CCN(NC(=O)c3cc4ccccc4[nH]3)C(=O)N12` [Compound 1075, [3S(4S)]3-[6,10-Dioxo-7-(indole-2-carboxamido)-1,2,3,4,7,8,9,10-octahydro-6H-pyridazino[1,2-a][1,2,4]triazepine-4-carboxamido]-4-oxobutanoic acid], the IC50 in the data set on IL-1β, human whole blood (setting [2]) was 5.5 µM. Further, in data set [1] (Table 17), the clearance amounted to 14.5 mL/min/kg.

For `O=C[C@H](CC(=O)O)NC(=O)[C@@H]1CCCN2C(=O)CCN(NS(=O)(=O)c3ccccc3)C(=O)N12` [Compound 1027, [3S(4S)]3-(6,10-Dioxo-1,2,3,4,7,8,9,10-octahydro-7-phenylsulphonylamino-6H-pyridazino[1,2-a][1,2,4]triazepine-4-carboxamido)-4-oxobutanoic acid], the IC50 in the data set on IL-1β, human whole blood (setting [3]) was over 20 µM. For the same molecule, the clearance in data set [1] (10-20 mg/kg) was determined as 60 mL/min/kg.

For the molecule `O=C[C@H](CC(=O)O)NC(=O)[C@@H]1CCCN2C(=O)CC[C@H](NC(=O)c3nccc4ccccc34)C(=O)N12` [Compound 412, [3S(1S,9S)]3-[6,10-Dioxo-9-(isoquinolin-1-oylamino)-1,2,3,4,7,8,9,10-octahydro-6H-pyridazino[1,2-a][1,2]diazepine-1-carboxamido]-4-oxobutanoic acid], the IC50 in the data set with IL-1β, human whole blood (* = values obtained upon reassay, read-out: Whole human blood IC50) amounted to 1 µM; with IL-1β, human whole blood (setting [3]), 0.7 µM. The molecule also returned a clearance in data set [1] (10-20 mg/kg) of 25 mL/min/kg.

For the molecule `COCC(=O)N1C[C@H](NC(=O)c2ccccc2)C(=O)N(CC(=O)N[C@H](C=O)CC(=O)O)c2ccccc21` [Compound 605e, (3S)-3-[(3S)-2-Oxo-3-benzoylamino-5-methoxyacetyl-2,3,4,5-tetrahydro-1H-1,5-benzodiazepin-1-acetylamino]-4-oxo-butyric acid], the IC50 with IL-1β, human whole blood (setting [3]) was over 10 µM. The clearance in data set [1] (10-20 mg/kg) came out at 24 mL/min/kg.

Regarding `CC(=O)Nc1ccc(C(=O)NN2CCC(=O)N3CCC[C@@H](C(=O)N[C@H](C=O)CC(=O)O)N3C2=O)cc1` [Compound 1018, [3S(4S)]3-{7-[(4-Acetamido)benzamido]-6,10-Dioxo-1,2,3,4,7,8,9,10-octahydro-6H-pyridazino[1,2-a][1,2,4]-triazepine-4-carboxamido}-4-oxobutanoic acid], the IC50 with IL-1β, human whole blood (setting [2]) is 5.5 µM. Also, in data set [1] (Table 17), the clearance turned out to be 9.1 mL/min/kg.

In the case of `O=C[C@H](CC(=O)O)NC(=O)[C@@H]1CCCN2C(=O)CC[C@H](NC(=O)CCc3ccccc3)C(=O)N12` [Compound 47a, [3S(1S,9S)]3-(6,10-Dioxo-octahydro-9-(3-phenylpropionylamino)-6H-pyridazino[1,2-a][1,2]diazepine-1-carboxamido)-4-oxobutanoic acid], the IC50 in the data set with IL-1β, human whole blood (setting [3]) stood at 5.1 µM. Also, the clearance in data set [1] (10-20 mg/kg) amounted to 32 mL/min/kg.

Regarding `O=C(O)C[C@H](NC(=O)[C@@H]1CCCN2C(=O)CC[C@H](NC(=O)c3ccccc3)C(=O)N12)C(=O)CSc1nnnn1-c1ccccc1` [Compound 280, [3S(1S,9S)]3-(9-Benzoylamino-6,10-dioxo-1,2,3,4,7,8,9,10-octahydro-6H-pyridazino[1,2-a][1,2]diazepine-1-carboxamido)-4-oxo-5(1-phenyl-1H-tetrazole-5-thio)pentanoic acid], in the data set on IL-1β, human whole blood (setting [3]), the IC50 was over 1 µM. For the same molecule, the clearance in data set [1] (10-20 mg/kg) came out at 187 mL/min/kg.

Consider “[3S(1S,9S)]3-[(6,10-Dioxo-9-(methanesulphonylamino)-1,2,3,4,7,8,9,10-octahydro-6H-pyridazino[1,2-a][1,2]diazepine-1-carboxamido]-5-(5-methyl-3-phenylisoxazoyloxy)-4-oxopentanoic acid [505 b]”, for which, in the data set with IL-1β, human whole blood (Table 18, read-out: Whole human blood IC5O), the IC50 was 2.1 µM. In data set [1] (Table 18), the “Clearance Rat, i.v.” value is 196 mL/min/kg.

For the molecule `O=C1C[C@H](NC(=O)[C@@H]2CCCN3C(=O)CC[C@H](NC(=O)c4cccc5ccccc45)C(=O)N23)C(OCc2ccccc2)O1` (stereo partly drawn) [Compound 213v, [1S,9S(2RS,3S)]N-(2-Benzyloxy-5-oxotetrahydrofuran-3-yl)-6,10-dioxo-9-(naphth-1-oylamino)-1,2,3,4,7,8,9,10-octahydro-6H-pyridazino[1,2-a][1,2]diazepine-1-carboxamide], the IC50 in the data set with IL-1β, human whole blood (setting [2]) worked out at 1.1 µM. This molecule also registered a clearance in data set [1] (Table 17) of 23 mL/min/kg.
